According to patent US8629164B2, “Inhibitors of NF-κB” (Profectus Biosciences, Inc., priority 2009, dated 2014):

Tests used:
p65 (RelA) = p65 (RelA) (Homo sapiens, UniProt Q04206); experiment: TransAM NF-κB Family DNA Binding ELISA, p65; conditions: for IC50: p65 binding IC50 (uM), binding to NF-κB sites
Description: (§3) Treated samples were then transferred to 30 μL Complete Binding Buffer (with DTT) in microplate wells pre-coated with the NF-κB consensus oligonucleotide. […] The plate was incubated for 1 hour at room temperature with gentle shaking and then washed 3 times with 200 μL 1× Wash Buffer. NF-κB p65, p50, p52, RelB, or c-Rel subunits bound to the plate were detected with 100 μL of the primary antibody (diluted 1:1000 in 1× Antibody Buffer) specific for that subunit. The plate was incubated for 1 hour at room temperature and then washed 3 times with 200 μL 1× Wash Buffer. Next, 100 μL of a HRP conjugated goat anti-rabbit antibody (diluted 1:1,000 in 1× Antibody Buffer) was added to each well. The plate was incubated for 1 hour at room temperature and then washed 4 times with 200 μL 1× Wash Buffer. 100 μL of room temperature Developing Solution was added to each well. The reaction was allowed to develop for 2-10 minutes until a medium dark blue color developed (depending on the subunit activity in the lot of extract or lot of recombinant protein used) and then the reaction was stopped with 100 μL Stop Solution yielding a yellow color. Absorbance was recorded using a Becton-Dickinson DTX 880 Multimode Detector at 450 nm with a reference wavelength subtracted at 620 nm.

c-Rel = molecular target: T1, c-Rel (Homo sapiens, UniProt Q04864); experiment: TransAM NF-κB Family DNA Binding ELISA, c-Rel; conditions: c-Rel binding IC50 (uM), cells without % sign
T1 sequence (Q04864 2-619 limits assumed): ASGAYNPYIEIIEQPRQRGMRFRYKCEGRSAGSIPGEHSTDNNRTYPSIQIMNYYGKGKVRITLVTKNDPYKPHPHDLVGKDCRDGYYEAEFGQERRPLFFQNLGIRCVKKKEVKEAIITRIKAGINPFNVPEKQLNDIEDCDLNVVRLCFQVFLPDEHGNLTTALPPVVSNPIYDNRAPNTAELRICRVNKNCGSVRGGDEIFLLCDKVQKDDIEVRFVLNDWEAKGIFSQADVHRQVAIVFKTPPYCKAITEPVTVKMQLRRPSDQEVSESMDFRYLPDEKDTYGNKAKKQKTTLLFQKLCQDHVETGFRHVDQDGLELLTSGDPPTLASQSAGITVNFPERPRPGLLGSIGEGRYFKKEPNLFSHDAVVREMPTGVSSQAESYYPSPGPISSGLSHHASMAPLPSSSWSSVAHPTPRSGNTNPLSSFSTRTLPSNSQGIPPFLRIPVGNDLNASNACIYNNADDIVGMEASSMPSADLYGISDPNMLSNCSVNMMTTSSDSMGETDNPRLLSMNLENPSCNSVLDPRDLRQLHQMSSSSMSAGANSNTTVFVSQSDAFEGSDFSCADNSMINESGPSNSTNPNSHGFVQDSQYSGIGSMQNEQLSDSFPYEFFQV
Description: as §3

[1] = system: PGE2 release from RAW264.7 cells; experiment: PGE2 release from LPS stimulated RAW264.7 cells; assay type: cell-based, mouse; conditions: for EC50: Mus musculus, RAW264.7, RAW 264.7 cells
Description: (§1) Specifically, A and B show the effects of the compound of Example 1 on soluble PGE2 and Il-6 secretion from RAW264.7 cells stimulated by 1 μg/mL of LPS. The cells were treated with the indicated concentrations of the compound of Example 1 for 2 hours, and then LPS was added and incubation continued for 4 hours.
LPS stimulation induces the expression of COX-2 the enzyme responsible for prostaglandin E2.

NF-κB [2] = experiment: 293-cell pNF-κB-luc reporter assay, TNF-α induced; assay type: cell-based; conditions: for EC50: HEK293 cells, NF-κB driven luciferase expression, read-out: 293/NFkB-luc EC50
Outline: (§2)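 HEK293 cells with stably integrated NF-κB reporters, pNF-κB-luc (3 elements) or pTRH1-NF-κB-dscGFP (4 elements). Cells pretreated 2 h with 0–40 μM compound, then stimulated with 20 ng/ml TNF-α for 18 h; luminescence or fluorescence read. Activity referenced to 0.5% DMSO control; median of three independent experiments.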

NF-κB [3] = experiment: 293-cell pTRH1-NF-κB-dscGFP reporter assay, TNF-α induced; assay type: cell-based; conditions: for EC50: Homo sapiens, HEK293, HEK293 cells, NF-κB driven GFP expression, read-out: NF-kB/293/GFP EC50
Outline: as §2

RelB = molecular target: T2, RelB (Homo sapiens, UniProt Q01201); experiment: TransAM NF-κB Family DNA Binding ELISA, RelB
T2 sequence (Q01201 1-579): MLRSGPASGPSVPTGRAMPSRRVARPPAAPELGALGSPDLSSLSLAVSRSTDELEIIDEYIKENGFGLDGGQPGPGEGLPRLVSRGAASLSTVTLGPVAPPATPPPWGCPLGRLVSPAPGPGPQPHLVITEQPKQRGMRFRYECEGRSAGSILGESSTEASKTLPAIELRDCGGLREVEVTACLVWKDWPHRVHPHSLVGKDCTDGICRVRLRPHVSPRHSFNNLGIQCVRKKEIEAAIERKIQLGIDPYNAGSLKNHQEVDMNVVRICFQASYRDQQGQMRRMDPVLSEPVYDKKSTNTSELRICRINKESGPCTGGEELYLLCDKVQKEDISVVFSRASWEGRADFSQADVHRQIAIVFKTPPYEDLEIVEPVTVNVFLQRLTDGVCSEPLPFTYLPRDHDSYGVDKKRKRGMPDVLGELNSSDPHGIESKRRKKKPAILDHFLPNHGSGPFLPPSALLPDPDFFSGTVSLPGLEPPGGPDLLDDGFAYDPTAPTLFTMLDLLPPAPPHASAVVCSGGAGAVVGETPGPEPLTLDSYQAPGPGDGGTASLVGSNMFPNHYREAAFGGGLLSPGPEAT
T2 sequence (Q00653 1-454 partner limits assumed): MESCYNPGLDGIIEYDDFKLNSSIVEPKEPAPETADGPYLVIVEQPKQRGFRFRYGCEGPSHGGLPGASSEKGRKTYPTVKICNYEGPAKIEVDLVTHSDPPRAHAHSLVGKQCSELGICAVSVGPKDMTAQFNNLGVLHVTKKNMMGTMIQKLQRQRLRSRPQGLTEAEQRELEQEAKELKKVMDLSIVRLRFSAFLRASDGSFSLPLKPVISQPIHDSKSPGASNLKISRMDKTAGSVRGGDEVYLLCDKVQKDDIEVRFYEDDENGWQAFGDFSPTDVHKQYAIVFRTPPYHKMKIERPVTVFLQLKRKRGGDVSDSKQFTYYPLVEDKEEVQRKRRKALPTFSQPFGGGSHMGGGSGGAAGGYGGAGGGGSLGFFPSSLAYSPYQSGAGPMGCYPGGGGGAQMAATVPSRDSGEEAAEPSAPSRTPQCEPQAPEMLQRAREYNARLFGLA
Description: as §3

[4] = system: IL-6 release from RAW264.7 cells; experiment: IL-6 release from LPS stimulated RAW264.7 cells; assay type: cell-based, mouse; conditions: for EC50: Mus musculus, RAW264.7, RAW 264.7 cells
Description: as §1, with “hours. […]” for “hours.”

[5] = RelB binding IC50 (uM), cells without % sign

Chain of p65 (RelA) (Q04206 whole entry): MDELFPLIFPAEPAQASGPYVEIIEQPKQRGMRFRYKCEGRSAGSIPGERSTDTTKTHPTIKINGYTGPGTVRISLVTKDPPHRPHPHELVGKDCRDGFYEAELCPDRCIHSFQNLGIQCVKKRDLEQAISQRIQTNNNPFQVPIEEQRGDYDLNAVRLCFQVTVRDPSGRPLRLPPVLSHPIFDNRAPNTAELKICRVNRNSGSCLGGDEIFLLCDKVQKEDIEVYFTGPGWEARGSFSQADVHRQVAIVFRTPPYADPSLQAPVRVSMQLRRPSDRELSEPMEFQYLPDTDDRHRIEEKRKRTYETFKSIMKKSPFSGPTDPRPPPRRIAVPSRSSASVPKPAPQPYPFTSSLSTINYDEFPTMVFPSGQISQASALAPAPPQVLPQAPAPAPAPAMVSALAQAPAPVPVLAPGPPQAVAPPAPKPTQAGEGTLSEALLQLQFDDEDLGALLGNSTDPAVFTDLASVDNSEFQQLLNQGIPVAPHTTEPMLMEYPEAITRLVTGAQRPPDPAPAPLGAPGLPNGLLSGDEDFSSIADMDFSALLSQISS

| SMILES | inhibition of p65 (RelA) binding to DNA, comparison (p65 (RelA); FIG. 7, canonical pathway) | IC50 (p65 (RelA)) [µM] | IC50 (c-Rel) [µM] | EC50 [1] [µM] | EC50 (NF-κB [2]) [µM] | EC50 (NF-κB [3]) [µM] | IC50 (RelB; [5]) [µM] | IC50 (RelB; RelB binding to DNA IC50, FIG. 8, non-canonical pathway) [µM] | EC50 [4] [µM] | decrease in downstream PGE2 synthesis ([1]; LPS stimulated, FIG. 5A) | IC50 (NF-κB [2]; 2 hours pre-treatment, 20 ng/ml TNF-α 18 hours, median of three experiments ± standard error, read-out: median IC50, expression of the luciferase gene) [µM] | IC50 (NF-κB [3]; 2 hours pre-treatment, 20 ng/ml TNF-α 18 hours, median of three experiments ± standard error, read-out: median IC50, expression of the Green fluorescent protein gene) [µM] | inhibition of IL-6 ([4]; LPS stimulated RAW264.7, FIG. 5B) |
| --- | --- | --- | --- | --- | --- | --- | --- | --- | --- | --- | --- | --- | --- |
| O=C(NC1=CC(=O)C2OC2C1O)c1cc2ccccc2nc1O (racemic) [Example 2, (±)-2-hydroxy-N-(2-hydroxy-5-oxo-7-oxabicyclo[4.1.0]hept-3-en-3-yl)quinoline-3-carboxamide] | more potently than DHMEQ and parthenolide | 1.4 | 2.1 | 1.8 | 4.1 | 0.21 | 2 | ~2 | 0.24 |  |  |  |  |
| O=C(NC1=CC(=O)C2OC2C1O)c1cccnc1O (racemic) [Example 1, (±)-2-hydroxy-N-(2-hydroxy-5-oxo-7-oxabicyclo[4.1.0]hept-3-en-3-yl)nicotinamide] |  | 2.2 | 4.6 | 6.9 | 6.2 | 6.2 | 7.4 |  | 6.5 | dose dependent | 16.2 ± 1.1 | 6.2 ± 0.5 | inhibited in a dose dependent manor |
